Assay results taken from ChEMBL document CHEMBL2396561 (J Med Chem, 2013).
Values after ≈ are worked out from the molar mass of the structure shown.

What was measured:
Staphylococcus aureus = assay: Antibacterial activity against Staphylococcus aureus ATCC 29213 expressing FabI assessed as growth inhibition after 18 to 24 hrs by microdilution method; type: functional
[1] = biological target: T1, Enoyl-[acyl-carrier-protein] reductase [NADH] (Francisella tularensis subsp. tularensis (strain SCHU S4 / Schu 4), UniProt Q5NGQ3)
T1 sequence (Q5NGQ3 whole entry): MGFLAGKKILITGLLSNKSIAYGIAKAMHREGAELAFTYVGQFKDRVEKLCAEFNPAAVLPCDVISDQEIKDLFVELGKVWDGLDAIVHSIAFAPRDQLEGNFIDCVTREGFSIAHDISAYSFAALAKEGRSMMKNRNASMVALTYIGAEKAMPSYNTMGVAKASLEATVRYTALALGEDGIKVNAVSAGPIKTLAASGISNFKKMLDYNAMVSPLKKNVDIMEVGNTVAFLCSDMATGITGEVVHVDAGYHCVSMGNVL

[2] = Cytotoxicity against human 786-O cells assessed as cell survival after 72 hrs by CellTiter-96 aqueous one solution assay; type: cell-based, 786-0; conditions: read-out: LC50
[3] = test system: Francisella tularensis subsp. tularensis SCHU S4; assay: Antibacterial activity against Francisella tularensis SCHU S4 expressing FabI assessed as growth inhibition after 42 to 48 hrs by microdilution method; type: functional
Escherichia coli = assay: Antibacterial activity against Escherichia coli ATCC 25922 expressing FabI assessed as growth inhibition after 18 to 24 hrs by microdilution method; type: functional
[4] = biological target: T1, Enoyl-[acyl-carrier-protein] reductase [NADH]; remark: listed apart in the source
Pseudomonas aeruginosa = assay: Antibacterial activity against Pseudomonas aeruginosa ATCC 27853 expressing FabI, FabV, FabK assessed as growth inhibition after 18 to 24 hrs by microdilution method; type: functional
Bacillus anthracis = assay: Antibacterial activity against Bacillus anthracis Ames expressing FabI assessed as growth inhibition after 18 to 24 hrs by microdilution method; type: functional
[5] = Cytotoxicity against mouse Neuro2a cells assessed as cell survival after 72 hrs by CellTiter-96 aqueous one solution assay; type: cell-based, N2a; conditions: read-out: LC50
[6] = biological target: T1, Enoyl-[acyl-carrier-protein] reductase [NADH]; remark: listed apart in the source
[7] = Solubility of the compound in DMSO at 125 uM; type: physicochemical

Structure (SMILES) | MIC (Staphylococcus aureus) | CC50 at 72 h [2] | MIC [3] | MIC (Escherichia coli) | IC50 [4] | MIC (Pseudomonas aeruginosa) | MIC (Bacillus anthracis) | CC50 at 72 h [5] | IC50 [6] | also measured
O=C(CC1CCCCC1)N1CCC(c2nc(-c3ccc(S(=O)(=O)N4CCCC4)cc3)no2)CC1 | > 52 µg/mL | 7 µM | > 52 µg/mL | > 52 µg/mL | 8 µM | > 52 µg/mL | > 26 µg/mL | 8 µM |  | Ki [1]: 7 µM
O=C(C(=O)N1CC=C(c2ccccc2)CC1)c1c[nH]c2ccccc12 | > 413 µg/mL | 63 µM | 39 µM | > 413 µg/mL | 3 µM | > 413 µg/mL | > 208 µg/mL | 70 µM | 12 µM | 
O=C(COc1ccccc1)NCCSc1c[nH]c2ccccc12 | 86 µg/mL (≈ 263 µM) | 30 µM | 67 µM | > 343 µg/mL | 20 µM | > 343 µg/mL | 43 µg/mL (≈ 132 µM) | 30 µM |  | Ki [1]: 3.4 µM; solubility [7]: soluble
CN(Cc1ccccc1N)C(=O)c1cc2ccccc2o1 |  |  |  |  |  |  |  |  | 45 µM | 
N#Cc1ccc(Oc2ccccc2O)c(F)c1 |  |  |  |  |  |  |  |  | 11 µM | 
NC(=O)c1ccc(Oc2ccccc2O)c(F)c1 |  |  |  |  |  |  |  |  | 6 µM | 
CN(Cc1ccc(C(C)(C)C)cc1)Cc1cccc2ccccc12 [BUTENAFINE] |  |  |  |  |  |  |  |  | 76 µM | 
O=C(O)c1cn(C2CC2)c2cc(N3CCNCC3)c(F)cc2c1=O [CIPROFLOXACIN] | 2 µg/mL (≈ 6.04 µM) |  | 0.125 µg/mL | 0.0312 µg/mL (≈ 0.0943 µM) |  | 1 µg/mL (≈ 3.02 µM) | 0.0312 µg/mL (≈ 0.0943 µM) |  |  | 
Nc1ccn([C@@H]2O[C@H](CO)[C@@H](O)[C@@H]2O)c(=O)n1 [CYTARABINE] |  |  |  |  |  |  |  |  | 59 µM | 
O=c1oc2ccccc2c(O)c1Cc1c(O)c2ccccc2oc1=O [DICUMAROL] |  |  |  |  |  |  |  |  | 47 µM | 
CCc1ccc(CCOc2ccc(CC3SC(=O)NC3=O)cc2)nc1 (stereo not drawn) [PIOGLITAZONE] |  |  |  |  |  |  |  |  | 79 µM | 
Oc1cc(Cl)ccc1Oc1ccc(Cl)cc1Cl [TRICLOSAN] |  | 4.2 µM |  |  | 1.3 µM |  |  | 5.4 µM |  | 
